Active and inactive are the calls of the source. The rule behind the calls is not given here.
Target: Acetylcholinesterase (Electrophorus electricus) (UniProt O42275)
Test: Mixed type inhibition of electric eel acetylcholinesterase preincubated for 15 mins by Lineweaver-Burk plot analysis

Sequence of Acetylcholinesterase (Electrophorus electricus) (O42275 24-633 limits assumed): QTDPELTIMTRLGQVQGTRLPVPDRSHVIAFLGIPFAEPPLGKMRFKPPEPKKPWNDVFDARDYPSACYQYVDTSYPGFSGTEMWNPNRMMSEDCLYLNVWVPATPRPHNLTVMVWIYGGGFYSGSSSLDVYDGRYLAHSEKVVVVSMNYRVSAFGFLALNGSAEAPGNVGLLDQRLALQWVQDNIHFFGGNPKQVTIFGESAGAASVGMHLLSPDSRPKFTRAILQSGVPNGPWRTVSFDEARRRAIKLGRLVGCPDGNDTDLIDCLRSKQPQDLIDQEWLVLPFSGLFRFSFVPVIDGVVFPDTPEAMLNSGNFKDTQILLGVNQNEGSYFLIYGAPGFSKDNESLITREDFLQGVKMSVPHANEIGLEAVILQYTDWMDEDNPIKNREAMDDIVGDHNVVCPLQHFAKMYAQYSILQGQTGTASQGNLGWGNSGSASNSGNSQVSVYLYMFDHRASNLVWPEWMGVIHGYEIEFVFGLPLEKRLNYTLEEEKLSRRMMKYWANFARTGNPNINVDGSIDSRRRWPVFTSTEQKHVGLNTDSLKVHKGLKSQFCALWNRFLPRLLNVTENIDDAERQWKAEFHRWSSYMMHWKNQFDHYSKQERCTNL

| SMILES | inhibition |
| --- | --- |
| O=C(CCN1CCCC1)Nc1ccc(/C=C2\CCn3c2nc2cc(Cl)ccc2c3=O)cc1 | Active |

Test system: not listed separately
Test: Inhibition of amyloid beta (1 to 40) self-mediated aggregation at 10 uM after 72 hrs by thioflavin T based fluorometric assay relative to control

| SMILES | inhibition [%] |
| --- | --- |
| O=C(CCN1CCCCC1)Nc1ccc(/C=C2\CCCn3c2nc2cc(Cl)ccc2c3=O)cc1 | 52.9 |
| CN(C)CCCNC(=O)c1ccc(/C=C2\CCn3c2nc2cc(Cl)ccc2c3=O)cc1 | 56.5 |
| O=C(NCCN1CCCC1)c1ccc(/C=C2\CCn3c2nc2cc(Cl)ccc2c3=O)cc1 | 57.4 |
| CN(C)CCNC(=O)c1ccc(/C=C2\CCn3c2nc2cc(Cl)ccc2c3=O)cc1 | 36.8 |
| O=C(NCCN1CCCC1)c1ccc(/C=C2\CCCn3c2nc2cc(Cl)ccc2c3=O)cc1 | 53.6 |
| CCN(CC)CCC(=O)Nc1ccc(/C=C2\CCCn3c2nc2cc(Cl)ccc2c3=O)cc1 | 54.8 |
| O=C(NCCCN1CCCC1)c1ccc(/C=C2\CCCn3c2nc2cc(Cl)ccc2c3=O)cc1 | 53.3 |
| O=C(CCN1CCCC1)Nc1ccc(/C=C2\CCn3c2nc2cc(Cl)ccc2c3=O)cc1 | 62.3 |
| CCN(CC)CCC(=O)Nc1ccc(/C=C2\CCn3c2nc2cc(Cl)ccc2c3=O)cc1 | 39 |
| CN(C)CCCNC(=O)c1ccc(/C=C2\CCCn3c2nc2cc(Cl)ccc2c3=O)cc1 | 49.8 |
| O=C(CC[n+]1ccccc1)Nc1ccc(/C=C2\CCn3c2nc2cc(Cl)ccc2c3=O)cc1 | 49 |
| CN(C)CCNC(=O)c1ccc(/C=C2\CCCn3c2nc2cc(Cl)ccc2c3=O)cc1 | 54.5 |
| O=C(CC[n+]1ccccc1)Nc1ccc(/C=C2\CCCn3c2nc2cc(Cl)ccc2c3=O)cc1 | 33 |
| O=C(CCN1CCCCC1)Nc1ccc(/C=C2\CCn3c2nc2cc(Cl)ccc2c3=O)cc1 | 49.8 |
| O=C(NCCCN1CCCC1)c1ccc(/C=C2\CCn3c2nc2cc(Cl)ccc2c3=O)cc1 | 36.2 |
| O=C(CCN1CCCC1)Nc1ccc(/C=C2\CCCn3c2nc2cc(Cl)ccc2c3=O)cc1 | 53.5 |
| COc1cc(/C=C/C(=O)CC(=O)/C=C/c2ccc(O)c(OC)c2)ccc1O | 48.8 |

Test system: not listed separately
Test: Inhibition of amyloid beta (1 to 40) self-mediated aggregation assessed as reduction in beta-sheet structure formation at 20 uM after 3 days by CD spectropolarimetric analysis

| SMILES | inhibition |
| --- | --- |
| O=C(CCN1CCCC1)Nc1ccc(/C=C2\CCn3c2nc2cc(Cl)ccc2c3=O)cc1 | Active |

Test system: not listed separately
Test: Inhibition of amyloid beta (1 to 40) self-mediated aggregation assessed as inhibition of extended fibrils formation at 10 uM after 4 days by transmission electron microscopic analysis

| SMILES | inhibition |
| --- | --- |
| O=C(CCN1CCCC1)Nc1ccc(/C=C2\CCn3c2nc2cc(Cl)ccc2c3=O)cc1 | Active |

Test system: not listed separately
Test: Inhibition of amyloid beta (1 to 40) self-mediated aggregation assessed as change in alpha-helix structure formation at 20 uM after 3 days by CD spectropolarimetric analysis

| SMILES | inhibition |
| --- | --- |
| O=C(CCN1CCCC1)Nc1ccc(/C=C2\CCn3c2nc2cc(Cl)ccc2c3=O)cc1 | inactive |

Target: Acetylcholinesterase (Electrophorus electricus, UniProt O42275)
Sequence (O42275 whole entry): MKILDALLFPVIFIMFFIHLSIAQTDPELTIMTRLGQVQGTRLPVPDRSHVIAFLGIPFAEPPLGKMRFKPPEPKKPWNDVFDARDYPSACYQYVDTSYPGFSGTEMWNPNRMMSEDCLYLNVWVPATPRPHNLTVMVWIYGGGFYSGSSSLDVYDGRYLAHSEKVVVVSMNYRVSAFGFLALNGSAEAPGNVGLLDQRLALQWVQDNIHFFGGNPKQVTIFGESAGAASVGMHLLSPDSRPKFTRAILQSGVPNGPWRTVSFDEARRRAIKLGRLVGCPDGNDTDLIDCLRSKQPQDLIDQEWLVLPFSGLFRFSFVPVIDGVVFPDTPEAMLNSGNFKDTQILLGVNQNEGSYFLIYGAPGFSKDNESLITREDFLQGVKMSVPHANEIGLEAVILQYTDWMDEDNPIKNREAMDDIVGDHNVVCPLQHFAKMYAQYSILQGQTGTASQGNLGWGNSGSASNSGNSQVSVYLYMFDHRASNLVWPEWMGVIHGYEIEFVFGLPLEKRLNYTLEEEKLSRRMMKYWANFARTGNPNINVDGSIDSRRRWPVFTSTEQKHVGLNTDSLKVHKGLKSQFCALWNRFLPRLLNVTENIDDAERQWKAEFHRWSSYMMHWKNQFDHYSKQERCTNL
Description: Inhibition of electric eel acetylcholinesterase using acetylcholine chloride as substrate preincubated for 15 mins before substrate addition by Ellman's method

| SMILES | IC50 [nM] |
| --- | --- |
| O=C(CCN1CCCCC1)Nc1ccc(/C=C2\CCCn3c2nc2cc(Cl)ccc2c3=O)cc1 | 31 |
| CN(C)CCCNC(=O)c1ccc(/C=C2\CCn3c2nc2cc(Cl)ccc2c3=O)cc1 | 1420 |
| O=C(NCCN1CCCC1)c1ccc(/C=C2\CCn3c2nc2cc(Cl)ccc2c3=O)cc1 | 45 |
| CN(C)CCNC(=O)c1ccc(/C=C2\CCn3c2nc2cc(Cl)ccc2c3=O)cc1 | 160 |
| O=C(NCCN1CCCC1)c1ccc(/C=C2\CCCn3c2nc2cc(Cl)ccc2c3=O)cc1 | 1510 |
| CCN(CC)CCC(=O)Nc1ccc(/C=C2\CCCn3c2nc2cc(Cl)ccc2c3=O)cc1 | > 1000 |
| O=C(NCCCN1CCCC1)c1ccc(/C=C2\CCCn3c2nc2cc(Cl)ccc2c3=O)cc1 | 1210 |
| O=C(CCN1CCCC1)Nc1ccc(/C=C2\CCn3c2nc2cc(Cl)ccc2c3=O)cc1 | 41 |
| CCN(CC)CCC(=O)Nc1ccc(/C=C2\CCn3c2nc2cc(Cl)ccc2c3=O)cc1 | 60 |
| CN(C)CCCNC(=O)c1ccc(/C=C2\CCCn3c2nc2cc(Cl)ccc2c3=O)cc1 | 2050 |
| O=C(CC[n+]1ccccc1)Nc1ccc(/C=C2\CCn3c2nc2cc(Cl)ccc2c3=O)cc1 | 49 |
| CN(C)CCNC(=O)c1ccc(/C=C2\CCCn3c2nc2cc(Cl)ccc2c3=O)cc1 | 360 |
| O=C(CC[n+]1ccccc1)Nc1ccc(/C=C2\CCCn3c2nc2cc(Cl)ccc2c3=O)cc1 | 820 |
| O=C(CCN1CCCCC1)Nc1ccc(/C=C2\CCn3c2nc2cc(Cl)ccc2c3=O)cc1 | 23 |
| O=C(NCCCN1CCCC1)c1ccc(/C=C2\CCn3c2nc2cc(Cl)ccc2c3=O)cc1 | 1440 |
| O=C(CCN1CCCC1)Nc1ccc(/C=C2\CCCn3c2nc2cc(Cl)ccc2c3=O)cc1 | > 1000 |

Target: Cholinesterase (Equus caballus, UniProt P81908)
Sequence (P81908 whole entry): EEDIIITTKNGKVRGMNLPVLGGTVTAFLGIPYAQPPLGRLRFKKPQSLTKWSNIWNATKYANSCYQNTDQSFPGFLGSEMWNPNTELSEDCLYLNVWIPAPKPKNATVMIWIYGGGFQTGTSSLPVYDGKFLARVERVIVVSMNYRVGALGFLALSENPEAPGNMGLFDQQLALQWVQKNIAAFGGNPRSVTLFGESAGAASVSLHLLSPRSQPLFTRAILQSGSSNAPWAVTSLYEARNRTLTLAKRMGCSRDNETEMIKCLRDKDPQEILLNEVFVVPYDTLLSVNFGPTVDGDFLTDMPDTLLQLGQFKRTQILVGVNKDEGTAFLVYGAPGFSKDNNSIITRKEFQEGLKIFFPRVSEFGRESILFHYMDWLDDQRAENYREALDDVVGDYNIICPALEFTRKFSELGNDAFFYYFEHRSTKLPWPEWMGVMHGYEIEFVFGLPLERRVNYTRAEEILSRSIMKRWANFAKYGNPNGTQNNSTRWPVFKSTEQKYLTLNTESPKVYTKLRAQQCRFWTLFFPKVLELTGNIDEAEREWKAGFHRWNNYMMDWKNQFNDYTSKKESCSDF
Description: Inhibition of equine serum butyrylcholinesterase using butyrylthiocholine chloride as substrate preincubated for 15 mins before substrate addition by Ellman's method

| SMILES | IC50 [nM] |
| --- | --- |
| O=C(CCN1CCCCC1)Nc1ccc(/C=C2\CCCn3c2nc2cc(Cl)ccc2c3=O)cc1 | 5990 |
| CN(C)CCCNC(=O)c1ccc(/C=C2\CCn3c2nc2cc(Cl)ccc2c3=O)cc1 | 5180 |
| O=C(NCCN1CCCC1)c1ccc(/C=C2\CCn3c2nc2cc(Cl)ccc2c3=O)cc1 | 11100 |
| CN(C)CCNC(=O)c1ccc(/C=C2\CCn3c2nc2cc(Cl)ccc2c3=O)cc1 | > 20000 |
| O=C(NCCN1CCCC1)c1ccc(/C=C2\CCCn3c2nc2cc(Cl)ccc2c3=O)cc1 | 6750 |
| CCN(CC)CCC(=O)Nc1ccc(/C=C2\CCCn3c2nc2cc(Cl)ccc2c3=O)cc1 | 2340 |
| O=C(NCCCN1CCCC1)c1ccc(/C=C2\CCCn3c2nc2cc(Cl)ccc2c3=O)cc1 | 500 |
| O=C(CCN1CCCC1)Nc1ccc(/C=C2\CCn3c2nc2cc(Cl)ccc2c3=O)cc1 | 3820 |
| CCN(CC)CCC(=O)Nc1ccc(/C=C2\CCn3c2nc2cc(Cl)ccc2c3=O)cc1 | 6440 |
| CN(C)CCCNC(=O)c1ccc(/C=C2\CCCn3c2nc2cc(Cl)ccc2c3=O)cc1 | 6640 |
| O=C(CC[n+]1ccccc1)Nc1ccc(/C=C2\CCn3c2nc2cc(Cl)ccc2c3=O)cc1 | 1700 |
| CN(C)CCNC(=O)c1ccc(/C=C2\CCCn3c2nc2cc(Cl)ccc2c3=O)cc1 | > 40000 |
| O=C(CC[n+]1ccccc1)Nc1ccc(/C=C2\CCCn3c2nc2cc(Cl)ccc2c3=O)cc1 | 3380 |
| O=C(CCN1CCCCC1)Nc1ccc(/C=C2\CCn3c2nc2cc(Cl)ccc2c3=O)cc1 | 2880 |
| O=C(NCCCN1CCCC1)c1ccc(/C=C2\CCn3c2nc2cc(Cl)ccc2c3=O)cc1 | 610 |
| O=C(CCN1CCCC1)Nc1ccc(/C=C2\CCCn3c2nc2cc(Cl)ccc2c3=O)cc1 | 6450 |
